One assay concerns HMC1.2 cells. Briefly: Cell viability assay (CellTiter-Glo). It is filed as cell-based, human. To be noted: 72 h; for GI50 HMC1.2: inactive = less than 50% inhibition at a concentration of 50 μM; for GI50: Homo sapiens. The procedure: (§1) GIST-T1 (Cosmobio, Tokyo, Japan, # PMC-GIST01C-COS) cells were cultured in DMEM (Welgene, # LM001-05) and HMC1.2 (Merck, Darmstadt, Germany, # SCC062) cells were cultured in IMDM (Welgene, # LM004-01). Parental Ba/F3 (DSMZ, Braunschweig, Germany, # ACC300) cells were cultured in RPMI (Welgene, # LM011-51) with 10 ng IL-3/mL (Enzo, # ALX-201-821). The culture media was supplemented with 10% fetal bovine serum and 1% penicillin/streptomycin solution. The cells were maintained in a humidified atmosphere containing 5% CO2 at 37 °C.
(§2) Cells (GIST-T1: 5.0 × 10^3; HMC1.2: 1 × 10^4) were seeded in 96-well plates. Each compound was treated in each well at 10 dose points of 3-fold serial dilution. After treatment with each compound for 72 h, CellTiter-Glo solution (Promega, # G7572) was added to each well. Anti-proliferation activity was measured the luminescence using a 96-well plate reader (EnVision 2013).
For orientation: ATP-based viability assays read luminescence as a measure of living cells.

The next assay has as its target c-KIT (Homo sapiens, UniProt P10721). Put plainly: Radiometric biochemical kinase assay on c-KIT. Set-up: purchased Reaction Biology Corp. (contract assay service). To be noted: for IC50 against c-KIT: radiometric biochemical kinase assay, 10 μM ATP, inactive = less than 50% inhibition at a concentration of 10 μM; for IC50: read-out: IC50 against c-KIT; for fold enhanced c-KIT inhibitory activity compared with 6h: versus 6h; for fold decreased c-KIT inhibitory activity relative to 6r: versus 6r. As for the experimental part:
Biochemical kinase assays on c-KIT protein kinase were performed at Reaction Biology Corp. (San Diego, CA, USA). […] The kinase assay followed the manufacturer’s instruction. IC50 values were calculated by GraphPad prism 8.0 software (GraphPad Software, San Diego, CA, USA).
Enzymatic inhibitory activities of all synthesized thiazolo[5,4-b]pyridine derivatives against c-KIT were measured using radiometric biochemical kinase assays (Table 1). We first explored the R1 group of the thiazolo[5,4-b]pyridine scaffold.

Another assay relates to GIST-T1 cells. Put plainly: Cell viability assay (CellTiter-Glo). It is filed as cell-based. To be noted: Homo sapiens, GISTT1; 72 h; concentration causing half-maximal growth inhibition. The procedure:
as §1, §2

The test system of another assay is c-KIT D816V Ba/F3 cells. Put plainly: Anti-proliferative activity on Ba/F3 cells. To be noted: Mus musculus, BaF3. It is filed as cell-based.
In another assay the test system is parental Ba/F3 cells. Put plainly: Anti-proliferative activity on Ba/F3 cells. It is filed as cell-based. To be noted: Mus musculus, BaF3. The procedure: as §1, §2

c-KIT, sequence (P10721 26-976): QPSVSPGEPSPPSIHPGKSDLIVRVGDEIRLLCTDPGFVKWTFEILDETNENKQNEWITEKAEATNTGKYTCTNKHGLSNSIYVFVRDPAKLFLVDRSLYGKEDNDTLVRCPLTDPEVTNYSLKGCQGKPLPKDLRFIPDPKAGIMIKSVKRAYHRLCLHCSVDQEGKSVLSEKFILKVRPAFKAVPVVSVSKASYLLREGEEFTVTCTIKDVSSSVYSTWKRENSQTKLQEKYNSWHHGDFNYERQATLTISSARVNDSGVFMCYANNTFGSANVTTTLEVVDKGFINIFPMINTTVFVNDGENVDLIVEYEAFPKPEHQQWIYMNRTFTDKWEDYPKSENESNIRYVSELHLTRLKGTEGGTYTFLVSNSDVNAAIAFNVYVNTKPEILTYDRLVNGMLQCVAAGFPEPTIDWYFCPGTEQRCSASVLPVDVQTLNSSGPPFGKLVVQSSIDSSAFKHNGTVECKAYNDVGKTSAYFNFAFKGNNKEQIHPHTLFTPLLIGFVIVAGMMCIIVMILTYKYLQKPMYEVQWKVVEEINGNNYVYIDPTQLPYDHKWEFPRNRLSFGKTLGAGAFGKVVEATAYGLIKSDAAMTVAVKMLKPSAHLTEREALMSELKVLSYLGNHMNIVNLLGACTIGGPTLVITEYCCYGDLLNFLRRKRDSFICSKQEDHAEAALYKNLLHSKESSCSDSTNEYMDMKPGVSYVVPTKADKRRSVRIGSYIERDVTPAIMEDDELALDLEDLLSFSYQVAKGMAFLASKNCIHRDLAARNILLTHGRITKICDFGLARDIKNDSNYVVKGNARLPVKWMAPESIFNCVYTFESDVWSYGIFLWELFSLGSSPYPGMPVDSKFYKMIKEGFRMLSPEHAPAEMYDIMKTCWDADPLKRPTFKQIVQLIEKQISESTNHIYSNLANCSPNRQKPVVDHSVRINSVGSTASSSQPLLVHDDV

Turning to `Cc1ccc(NC(=O)c2cscn2)cc1-c1cnc2sc(N)nc2c1` [6a], the “GI50 HMC1.2” value with HMC1.2 cells was “Inactive ^b”. The “IC50 against c-KIT” value at c-KIT was “inactive^b”. For the same compound, the GI50 (in general, the concentration at which growth is held to half of that of the control) in the assay on GIST-T1 cells is over 50 µM.
In the same order, the values of `Cc1cc(C(=O)Nc2ccc(C)c(-c3cnc4sc(N)nc4c3)c2)no1` [6b] are “Inactive ^b”, “inactive^b” and 33 ± 7.09 µM.
On to `Cc1ccc(NC(=O)c2csc(-c3ccncc3)n2)cc1-c1cnc2sc(N)nc2c1` [6c], for which the “GI50 HMC1.2” value with HMC1.2 cells is “Inactive ^b”. For the same compound, the “IC50 against c-KIT” value at c-KIT was “inactive^b”. This compound showed a GI50 in the assay on GIST-T1 cells of 33.7 ± 3.45 µM.
As to `Cc1ccc(NC(=O)c2ccccc2)cc1-c1cnc2sc(N)nc2c1` [6d], the 50% growth inhibitory concentration (GI50) with HMC1.2 cells came out at 25.2 ± 2.21 µM; in the assay with GIST-T1 cells it was 16.4 ± 2.73 µM. Also, the “IC50 against c-KIT” value at c-KIT is “inactive^b”.
In the same order, the values of `Cc1cccc(C(=O)Nc2ccc(C)c(-c3cnc4sc(N)nc4c3)c2)c1` [6e] are 11.5 ± 0.62 µM, 3.45 ± 0.41 µM and “inactive^b”.
Consider `Cc1cncc(C(=O)Nc2ccc(C)c(-c3cnc4sc(N)nc4c3)c2)c1` [6f], for which the “GI50 HMC1.2” value with HMC1.2 cells was “inactive ^b”. Further, the “IC50 against c-KIT” value against c-KIT was “inactive^b”. In the assay on GIST-T1 cells, this compound had a GI50 of 20.9 ± 2 µM.
`Cc1ccc(NC(=O)c2cccc(S(C)(=O)=O)c2)cc1-c1cnc2sc(N)nc2c1` [6g]: the GI50 in the assay with HMC1.2 cells stood at 36.8 ± 10.9 µM; in the assay with GIST-T1 cells, 10.8 ± 1.06 µM. For the same compound, the “IC50 against c-KIT” value on c-KIT is “inactive^b”.
For `Cc1ccc(NC(=O)c2cccc(C(F)(F)F)c2)cc1-c1cnc2sc(N)nc2c1` [6h], the figures for the GI50 in the assay on HMC1.2 cells and with GIST-T1 cells were 7.26 ± 4.13 µM and 0.96 ± 0.1 µM, respectively. Besides, at c-KIT, the half-maximal inhibitory concentration (IC50) – broadly, the concentration that inhibits the measured activity by half – is 9.87 µM.
Consider `Cc1ccc(NC(=O)Cc2cccc(C(F)(F)F)c2)cc1-c1cnc2sc(N)nc2c1` [6i], for which the concentration for 50% growth inhibition (GI50) amounted to 9.65 ± 1.06 µM with HMC1.2 cells and 7.16 ± 0.87 µM with GIST-T1 cells. In addition, the “IC50 against c-KIT” value against c-KIT is “inactive^b”.
In the case of `Cc1ccc(NC(=O)Nc2cccc(C(F)(F)F)c2)cc1-c1cnc2sc(N)nc2c1` [6j], the GI50 is 6.35 ± 0.32 µM in the assay on HMC1.2 cells and 3.31 ± 0.73 µM in the assay with GIST-T1 cells. For the same compound, the “IC50 against c-KIT” value against c-KIT is “inactive^b”.
In the assay with HMC1.2 cells, `Cc1ccc(NC(=O)c2ccc(N(C)C)c(C(F)(F)F)c2)cc1-c1cnc2sc(N)nc2c1` [6k] registered a 50% growth inhibitory concentration (GI50) of 2.27 ± 0.84 µM. Moreover, on c-KIT, the half-inhibitory concentration (IC50) amounted to 4.31 µM and the “fold enhanced c-KIT inhibitory activity compared with 6h” value is given as 2.3- to 5.6 fold. In addition, it took 0.18 ± 0.03 µM to inhibit growth with GIST-T1 cells by half (GI50).
`Cc1ccc(NC(=O)c2ccc(N3CCOCC3)c(C(F)(F)F)c2)cc1-c1cnc2sc(N)nc2c1` [6l] registered a GI50 in the assay on HMC1.2 cells of 4.34 ± 1.31 µM. Besides, on c-KIT, the concentration for half-maximal inhibition (IC50) is 1.76 µM and the “fold enhanced c-KIT inhibitory activity compared with 6h” value is on record as 2.3- to 5.6 fold. Growth with GIST-T1 cells was halved (GI50) at 0.08 ± 0.01 µM.
In the same order, the values of `Cc1ccc(NC(=O)c2ccc(N3CCN(C)CC3)c(C(F)(F)F)c2)cc1-c1cnc2sc(N)nc2c1` [6m] are 3.41 ± 1.49 µM, 2.17 µM, 2.3- to 5.6 fold and 0.27 ± 0.17 µM.
In the case of `Cc1ccc(NC(=O)c2cc(N3CCOCC3)cc(C(F)(F)F)c2)cc1-c1cnc2sc(N)nc2c1` [6n], the concentration for 50% growth inhibition (GI50) worked out at 7 ± 2.68 µM with HMC1.2 cells and 0.55 ± 0.09 µM in the assay with GIST-T1 cells. Also, the “IC50 against c-KIT” value on c-KIT is given as “Inactive ^b”.
As to `Cc1ccc(NC(=O)c2cc(N3CCN(C)CC3)cc(C(F)(F)F)c2)cc1-c1cnc2sc(N)nc2c1` [6o], the results for the GI50 in the assay with HMC1.2 cells and with GIST-T1 cells were 2.36 ± 0.58 µM and 0.28 ± 0.08 µM, respectively. Further, on c-KIT, the half-maximal inhibitory concentration (IC50) was found to be 5.03 µM.
For `Cc1ccc(NC(=O)c2ccc(CN3CCOCC3)c(C(F)(F)F)c2)cc1-c1cnc2sc(N)nc2c1` [6p] the same measures were 8.55 ± 2.4 µM, 0.66 ± 0.1 µM and 5.72 µM.
For `Cc1ccc(NC(=O)c2ccc(CN3CCS(=O)(=O)CC3)c(C(F)(F)F)c2)cc1-c1cnc2sc(N)nc2c1` [6q] the same measures were 15.5 ± 3.97 µM, 0.42 ± 0.07 µM and 3.23 µM.
In the same order, the values of `Cc1ccc(NC(=O)c2ccc(CN3CCN(CCO)CC3)c(C(F)(F)F)c2)cc1-c1cnc2sc(N)nc2c1` [6t] are 6.62 ± 0.75 µM, 0.12 ± 0.03 µM and 1.25 µM.
Regarding `CC(=O)N1CCN(Cc2ccc(C(=O)Nc3ccc(C)c(-c4cnc5sc(N)nc5c4)c3)cc2C(F)(F)F)CC1` [6u], the GI50 with HMC1.2 cells came to 11.3 ± 0.34 µM; with GIST-T1 cells, 0.66 ± 0.08 µM. In addition, the IC50 on c-KIT turned out to be 4.56 µM.
In the same order, the values of `Cc1ccc(NC(=O)c2ccc(CN3CCCC(N(C)C)C3)c(C(F)(F)F)c2)cc1-c1cnc2sc(N)nc2c1` (stereo not drawn) [6v] are 6.81 ± 0.67 µM, 0.05 ± 0.01 µM and 0.39 µM.
In the same order, the values of `Cc1ccc(NC(=O)c2ccc(CN(C)CCN(C)C)c(C(F)(F)F)c2)cc1-c1cnc2sc(N)nc2c1` [6w] are 4.99 ± 0.43 µM, 0.02 ± 0.01 µM and 0.25 µM.
On to `Cc1ccc(NC(=O)c2ccc(CN3CCN(C)CC3)c(C(F)(F)F)c2)cc1-c1cnc2sc(NC(=O)C3CCCCC3)nc2c1` [7a], for which halving of growth with HMC1.2 cells (GI50) required 4.58 ± 0.32 µM. At c-KIT, the IC50 was determined as 1.51 µM and the “fold decreased c-KIT inhibitory activity relative to 6r” value is on record as 5.3- to 10.8 fold. In the assay with GIST-T1 cells, this compound registered a concentration for 50% growth inhibition (GI50) of 0.08 ± 0.01 µM.
Take `Cc1ccc(NC(=O)c2ccc(CN3CCN(C)CC3)c(C(F)(F)F)c2)cc1-c1cnc2sc(NC(=O)c3ccccc3)nc2c1` [7b]: the GI50 was found to be 5.22 ± 0.59 µM in the assay on HMC1.2 cells and 0.1 ± 0.01 µM with GIST-T1 cells. The 50% inhibitory concentration (IC50) on c-KIT was 0.74 µM. In addition, at c-KIT, the “fold decreased c-KIT inhibitory activity relative to 6r” value was 5.3- to 10.8 fold.
In the case of `Cc1ccc(NC(=O)c2ccc(N3CCOCC3)c(C(F)(F)F)c2)cc1-c1cnc2sc(NC(=O)C3CCCCC3)nc2c1` [7d], the “GI50 HMC1.2” value with HMC1.2 cells was “inactive ^b”. Further, at c-KIT, the “IC50 against c-KIT” value was “inactive^b”. This compound returned a GI50 in the assay with GIST-T1 cells of 8.13 ± 1.81 µM.
As to `CC(=O)Nc1nc2cc(-c3cc(NC(=O)c4ccc(N5CCOCC5)c(C(F)(F)F)c4)ccc3C)cnc2s1` [7e], the figures for the concentration for 50% growth inhibition (GI50) in the assay with HMC1.2 cells and in the assay with GIST-T1 cells were 14 ± 10.2 µM and 0.23 ± 0.07 µM, respectively. Further, the IC50 on c-KIT was 0.88 µM.
For `CC(=O)Nc1nc2cc(-c3cc(NC(=O)c4ccc(CN5CCOCC5)c(C(F)(F)F)c4)ccc3C)cnc2s1` [7f] the same measures were 28.4 ± 13.3 µM, 0.3 ± 0.06 µM and 3.63 µM.
Consider `CC(=O)Nc1nc2cc(-c3cc(NC(=O)c4ccc(CN5CCCC(N(C)C)C5)c(C(F)(F)F)c4)ccc3C)cnc2s1` (stereo not drawn) [7g], for which the concentration for 50% growth inhibition (GI50) turned out to be 4.88 ± 1.18 µM in the assay with HMC1.2 cells and 0.07 ± 0.01 µM in the assay with GIST-T1 cells. Besides, the IC50 at c-KIT is 0.18 µM.
In the same order, the values of `CC(=O)Nc1nc2cc(-c3cc(NC(=O)c4ccc(CN(C)CCN(C)C)c(C(F)(F)F)c4)ccc3C)cnc2s1` [7h] are 4.98 ± 0.32 µM, 0.02 µM and 0.1 µM.
Turning to `CCN(CC)CCNC(=O)c1c(C)[nH]c(/C=C2\C(=O)Nc3ccc(F)cc32)c1C` [sunitinib, reference compound], the GI50 with HMC1.2 cells was 2.53 ± 0.35 µM; in the assay on GIST-T1 cells, 0.01 µM; in the assay on c-KIT D816V Ba/F3 cells, 0.58 ± 0.29 µM; in the assay with parental Ba/F3 cells, 2.72 ± 0.3 µM.

These data come from publication PMC9817970 (Cancers, 2022).
